Results on 32 compounds are retold here after patent publication US20230295212A1 (ROME Therapeutics, Inc., priority 2022, published 2023).

One assay deals with T1, LINE1 reverse transcriptase (Homo sapiens, UniProt O00370).
T1 construct: expressed in transfected cells; host or cells: HeLa Tet-On 3G (Takara, cat no 631183)
T1 sequence (O00370 whole entry, looked up): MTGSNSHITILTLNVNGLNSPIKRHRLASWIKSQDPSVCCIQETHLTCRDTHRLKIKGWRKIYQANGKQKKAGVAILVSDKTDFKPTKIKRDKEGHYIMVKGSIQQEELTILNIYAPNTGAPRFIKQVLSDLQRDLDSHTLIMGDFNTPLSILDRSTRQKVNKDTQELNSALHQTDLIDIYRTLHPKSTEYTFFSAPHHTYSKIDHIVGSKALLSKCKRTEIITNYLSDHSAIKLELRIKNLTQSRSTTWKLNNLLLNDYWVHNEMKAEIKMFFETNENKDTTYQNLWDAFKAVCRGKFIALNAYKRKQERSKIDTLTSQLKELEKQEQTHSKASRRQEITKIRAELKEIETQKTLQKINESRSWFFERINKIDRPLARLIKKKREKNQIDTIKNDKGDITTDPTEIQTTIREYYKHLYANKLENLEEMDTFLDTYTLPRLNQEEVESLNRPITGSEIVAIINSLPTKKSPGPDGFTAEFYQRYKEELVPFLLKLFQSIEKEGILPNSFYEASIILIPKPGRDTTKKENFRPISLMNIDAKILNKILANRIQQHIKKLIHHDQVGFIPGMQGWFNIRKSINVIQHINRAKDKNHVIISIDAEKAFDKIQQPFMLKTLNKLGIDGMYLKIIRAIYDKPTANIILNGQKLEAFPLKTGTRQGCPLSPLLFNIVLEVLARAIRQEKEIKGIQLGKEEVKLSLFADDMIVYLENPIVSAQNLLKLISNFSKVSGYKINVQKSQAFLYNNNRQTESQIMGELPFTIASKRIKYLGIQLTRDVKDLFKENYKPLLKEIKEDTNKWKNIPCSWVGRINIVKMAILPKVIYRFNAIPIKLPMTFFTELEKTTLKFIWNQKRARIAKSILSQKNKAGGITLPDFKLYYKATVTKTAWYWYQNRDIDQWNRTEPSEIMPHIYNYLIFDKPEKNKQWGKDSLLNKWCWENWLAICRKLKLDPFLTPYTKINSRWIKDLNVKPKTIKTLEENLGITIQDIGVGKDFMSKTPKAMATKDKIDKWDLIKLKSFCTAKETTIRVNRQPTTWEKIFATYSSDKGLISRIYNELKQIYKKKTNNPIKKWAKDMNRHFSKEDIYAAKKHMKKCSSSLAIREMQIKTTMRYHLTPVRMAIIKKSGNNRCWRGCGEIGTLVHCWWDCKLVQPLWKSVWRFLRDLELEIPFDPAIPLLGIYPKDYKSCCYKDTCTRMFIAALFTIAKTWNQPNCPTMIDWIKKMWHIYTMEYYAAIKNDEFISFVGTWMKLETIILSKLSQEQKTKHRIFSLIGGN
The experiment in a line: Stable artificial-intron Cis LINE1 reporter assay (HeLa Tet-On 3G, Firefly luciferase). In kind it is cell-based. Particulars: HeLa L1 artificial-intron reporter cells, doxycycline 500 ng/mL, 72 h, class symbols. On the procedure:
Exemplary compounds, were tested for the ability to inhibit LINE1 reverse transcriptase using a stable artificial-intron Cis LINE1 reporter assay. Assay procedures and results are described below.
A stable HeLa Tet-On 3G (Takara, cat no 631183) cell line expressing a bi-directional inducible LINE1 construct was generated as described in Xie, Y. et al. “Cell division promotes efficient retrotransposition in a stable L1 reporter cell line,” Mobile DNA (2013) 4:10. Single cell clones were screened for high Luciferase expression and the highest expression Firefly expressing clone was chosen for compound testing.
Test compounds were serially diluted in DMSO and spotted in 96-well plates. Subsequently, the HeLa Li artificial-intron reporter cells were plated into the compound-containing wells (8,000 cells/well), and the cells were induced for reporter expression with doxycycline (Sigma-Aldrich cat #D9891) at a final concentration of 500 ng/mL. Luminescence was measured 72 h after plating using the Dual-Glo Luciferase Assay System (Promega cat #E2940) following the manufacturer's instructions. The Firefly Luciferase activity was used to report LINE1 activity.
In the case of `C#C[C@]1(CO)O[C@@H](c2ccc3c(N)ncnn23)C[C@@H]1O` [Compound 37, (2R,3S,5R)-5-(4-aminopyrrolo[2,1-f][1,2,4]triazin-7-yl)-2-ethynyl-2-(hydroxymethyl) tetrahydrofuran-3-ol], the IC50 is at most 50 nM.

Compound `C#C[C@]1(CO)O[C@@H](n2cc(C)c(=O)[nH]c2=O)C[C@@H]1O` [Compound 38, 1-((2R,4S,5R)-5-ethynyl-4-hydroxy-5-(hydroxymethyl)tetrahydrofuran-2-yl)-5-methylpyrimidine-2,4(1H,3H)-dione] yielded an IC50 above 1000 nM.

With `C#C[C@]1(CO)O[C@@H](n2cc(C)c(=O)[nH]c2=O)[C@@H](F)[C@@H]1O` [Compound 39, 1-((2R,3S,4R,5R)-5-ethynyl-3-fluoro-4-hydroxy-5-(hydroxymethyl)tetrahydrofuran-2-yl)-5-methylpyrimidine-2,4(1H,3H)-dione], the IC50 fell in the range of 250 to 1000 nM.

`C#C[C@]1(CO)O[C@@H](n2ccc(N)nc2=O)C[C@@H]1O` [Compound 41, 4-amino-1-((2R,4S,5R)-5-ethynyl-4-hydroxy-5-(hydroxymethyl)tetrahydrofuran-2-yl)pyrimidin-2(1H)-one] had an IC50 of at most 50 nM.

As to `C#C[C@]1(CO)O[C@@H](n2cnc3c(N)nc(F)nc32)[C@@H](F)[C@@H]1O` [Compound 42, (2R,3R,4S,5R)-5-(6-amino-2-fluoro-9H-purin-9-yl)-2-ethynyl-4-fluoro-2-(hydroxymethyl) tetrahydrofuran-3-ol], the IC50 was at most 50 nM. Same read-out and setting: the value for `C=C[C@]1(CO)O[C@@H](n2ccc(N)nc2=O)C[C@@H]1O` [Compound 43, 4-amino-1-((2R,4S,5R)-4-hydroxy-5-(hydroxymethyl)-5-vinyltetrahydrofuran-2-yl)pyrimidin-2(1H)-one] was at most 50 nM; that for `CC[C@]1(CO)O[C@@H](n2ccc(N)nc2=O)C[C@@H]1O` [Compound 44, 4-amino-1-((2R,4S,5R)-5-ethyl-4-hydroxy-5-(hydroxymethyl)tetrahydrofuran-2-yl)pyrimidin-2(1H)-one] was at most 50 nM. Turning to `Nc1ccn([C@H]2C[C@H](O)[C@](CO)(CF)O2)c(=O)n1` [Compound 45, 4-amino-1-((2R,4S,5R)-5-(fluoromethyl)-4-hydroxy-5-(hydroxymethyl)tetrahydrofuran-2-yl)pyrimidin-2(1H)-one], the IC50 fell in the range of 50 to 100 nM. On the same count and under the same terms, the value for `Nc1nc2c(ncn2[C@H]2C[C@H](O)[C@](CO)(CF)O2)c(=O)[nH]1` [Compound 46, 2-amino-9-((2R,4S,5R)-5-(fluoromethyl)-4-hydroxy-5-(hydroxymethyl)tetrahydrofuran-2-yl)-1,9-dihydro-6H-purin-6-one] was 50 to 100 nM. Still for that read-out and setting: the value for `C=C[C@]1(CO)O[C@@H](n2ccc(N)nc2=O)[C@@H](F)[C@@H]1O` [Compound 47, 4-amino-1-((2R,3S,4R,5R)-3-fluoro-4-hydroxy-5-(hydroxymethyl)-5-vinyltetrahydrofuran-2-yl)pyrimidin-2(1H)-one] was at most 50 nM; that for `CO[C@]1(CO)O[C@@H](n2ccc(N)nc2=O)C[C@@H]1O` [Compound 48, 4-amino-1-((2R,4S,5R)-4-hydroxy-5-(hydroxymethyl)-5-methoxytetrahydrofuran-2-yl)pyrimidin-2(1H)-one] was 50 to 100 nM. Same read-out and setting: then `[N-]=[N+]=N[C@]1(CO)O[C@@H](n2ccc(N)nc2=O)C[C@@H]1O` [Compound 49, 4-amino-1-((2R,4S,5R)-5-azido-4-hydroxy-5-(hydroxymethyl)tetrahydrofuran-2-yl)pyrimidin-2(1H)-one], with 50 to 100 nM. As to `[N-]=[N+]=N[C@]1(CO)O[C@@H](n2ccc(N)nc2=O)[C@@H](F)[C@@H]1O` [Compound 50, 4-amino-1-((2R,3S,4R,5R)-5-azido-3-fluoro-4-hydroxy-5-(hydroxymethyl)tetrahydrofuran-2-yl)pyrimidin-2(1H)-one], the IC50 was at most 50 nM. The compound `CC[C@]1(CO)O[C@@H](n2ccc(N)nc2=O)[C@@H](F)[C@@H]1O` [Compound 51, 4-amino-1-((2R,3S,4R,5R)-5-ethyl-3-fluoro-4-hydroxy-5-(hydroxymethyl)tetrahydrofuran-2-yl)pyrimidin-2(1H)-one] had an IC50 of at most 50 nM.

As to `CC[C@]1(COC(=O)C(C)C)O[C@@H](n2ccc(N)nc2=O)C[C@@H]1OC(=O)C(C)C` [Compound 52, [(2R,3S,5R)-5-(4-amino-2-oxopyrimidin-1-yl)-2-ethyl-3-[(2-methylpropanoyl)oxy]oxolan-2-yl] methyl 2-methylpropanoate], the IC50 fell in the range of 100 to 250 nM. Same read-out and setting: then `C=C[C@]1(COC(=O)C(C)C)O[C@@H](n2ccc(N)nc2=O)C[C@@H]1OC(=O)C(C)C` [Compound 53, [(2R,3S,5R)-5-(4-amino-2-oxopyrimidin-1-yl)-2-ethenyl-3-[(2-methylpropanoyl)oxy]oxolan-2-yl] methyl 2-methylpropanoate], with 250 to 1000 nM; and `CC(C)[C@]1(CO)O[C@@H](n2ccc(N)nc2=O)C[C@@H]1O` [Compound 55, 4-amino-1-[(2R,4S,5R)-4-hydroxy-5-(hydroxymethyl)-5-isopropyloxolan-2-yl] pyrimidin-2-one], with above 1000 nM. Same read-out and setting: the value for `C=CCC1(CO)O[C@@H](n2ccc(N)nc2=O)C[C@@H]1O` (stereo partly drawn) [Compound 56, 1-((2R,4S)-5-allyl-4-hydroxy-5-(hydroxymethyl)tetrahydrofuran-2-yl)-4-aminopyrimidin-2(1H)-one] was 100 to 250 nM; that for `CCCC1(CO)O[C@@H](n2ccc(N)nc2=O)C[C@@H]1O` (stereo partly drawn) [Compound 57, 4-amino-1-((2R,4S,5R)-4-hydroxy-5-(hydroxymethyl)-5-propyltetrahydrofuran-2-yl)pyrimidin-2(1H)-one] was above 1000 nM. The same measure, in the same setting: the value for `CC(C)C(=O)OC[C@@]1(CCl)O[C@@H](n2cc(F)c(N)nc2=O)C[C@@H]1OC(=O)C(C)C` [Compound 58] was 50 to 100 nM; that for `Nc1ccn([C@H]2C[C@@H](O)[C@](CO)(CCl)O2)c(=O)n1` [Compound 59, 4-amino-1-[(2R,4R,5R)-5-(chloromethyl)-4-hydroxy-5-(hydroxymethyl)oxolan-2-yl] pyrimidin-2-one] was above 1000 nM; that for `CCC[C@]1(CO)O[C@@H](n2ccc(N)nc2=O)C[C@@H]1O` [Compound 60, 4-amino-1-((2R,4S,5R)-4-hydroxy-5-(hydroxymethyl)-5-propyltetrahydrofuran-2-yl)pyrimidin-2(1H)-one] was above 1000 nM. As to `[N-]=[N+]=N[C@]1(CO)O[C@@H](n2cc(F)c(N)nc2=O)C[C@@H]1O` [Compound 61, 4-amino-1-((2R,4S,5R)-5-azido-4-hydroxy-5-(hydroxymethyl)tetrahydrofuran-2-yl)-5-fluoropyrimidin-2(1H)-one], the IC50 was at most 50 nM. Turning to `Nc1ccn([C@H]2C[C@H](O)[C@](CO)(CC(F)(F)F)O2)c(=O)n1` [Compound 62, 4-amino-1-[(2R,4S,5R)-4-hydroxy-5-(hydroxymethyl)-5-(2,2,2-trifluoroethyl)oxolan-2-yl] pyrimidin-2-one], the IC50 fell in the range of 250 to 1000 nM. In the case of `C=C[C@]1(CO)O[C@@H](n2cnc3c(=O)[nH]c(N)nc32)[C@@H](F)[C@@H]1O` [Compound 63, 2-amino-9-[(2R,3S,4R,5R)-5-ethenyl-3-fluoro-4-hydroxy-5-(hydroxymethyl)oxolan-2-yl]-1H-purin-6-one], the IC50 is 250 to 1000 nM. Same read-out and setting: then `CC[C@]1(CO)O[C@@H](n2cnc3c(N)nc(F)nc32)C[C@@H]1O` [Compound 64, (2R,3S,5R)-5-(6-amino-2-fluoro-9H-purin-9-yl)-2-ethyl-2-(hydroxymethyl)tetrahydrofuran-3-ol], with 50 to 100 nM; and `Nc1nc(=O)n([C@H]2C[C@H](O)[C@](CO)(C(F)F)O2)cc1F` [Compound 65, 4-amino-1-[(2R,4S,5R)-5-(difluoromethyl)-4-hydroxy-5-(hydroxymethyl)oxolan-2-yl]-5-fluoropyrimidin-2-one], with at most 50 nM.

Compound `Nc1nc(=O)n([C@H]2C[C@H](O)[C@](CO)(C(F)(F)F)O2)cc1F` [Compound 66, 4-amino-5-fluoro-1-((2R,4S,5R)-4-hydroxy-5-(hydroxymethyl)-5-(trifluoromethyl)tetrahydrofuran-2-yl)pyrimidin-2(1H)-one] had an IC50 of 250 to 1000 nM.

In turn, `CC[C@]1(CO)O[C@@H](n2cnc3c(=O)[nH]c(N)nc32)[C@@H](F)[C@@H]1O` [Compound 68, 2-amino-9-((2R,3S,4R,5R)-5-ethyl-3-fluoro-4-hydroxy-5-(hydroxymethyl)tetrahydrofuran-2-yl)-1,9-dihydro-6H-purin-6-one] gave an IC50 of 100 to 250 nM. Still for that read-out and setting: the value for `C=C[C@]1(CO)O[C@@H](n2cnc3c(O)nc(N)nc32)C[C@@H]1O` [Compound 69, 2-amino-9-((2R,4S,5R)-4-hydroxy-5-(hydroxymethyl)-5-vinyltetrahydrofuran-2-yl)-1,9-dihydro-6H-purin-6-one] was at most 50 nM; that for `Nc1nc2c(ncn2[C@@H]2O[C@@](CO)(CCl)[C@@H](O)[C@@H]2F)c(=O)[nH]1` [Compound 70, 2-amino-9-((2R,3S,4R,5R)-5-(chloromethyl)-3-fluoro-4-hydroxy-5-(hydroxymethyl)-tetrahydrofuran-2-yl)-1,9-dihydro-6H-purin-6-one] was above 1000 nM.

Still in this assay, the particulars now being: HeLa L1 artificial-intron reporter cells, doxycycline 500 ng/mL, 72 h, numeric bounds.
The compound `CO[C@H]1C[C@H](n2ccc(N)nc2=O)O[C@@]1(CO)CCl` [Compound 54, 4-amino-1-[(2R,4S,5R)-5-(chloromethyl)-5-(hydroxymethyl)-4-methoxyoxolan-2-yl]-3,4-dihydropyrimidin-2-one] yielded an IC50 above 30000 nM.
